Series [1] is described as follows: Co-crystal screening experiments with Formula II (Table 17). Particulars: XRPD. It is filed as physicochemical. How it is done:
Additional co-crystal screens were carried out to identify further solid state forms of Formula (II).
Differential scanning calorimetry (DSC) was carried out with a TA Instruments Q2000 instrument (closed aluminum sample pan aluminum sample pan with a pinhole in the lid, heating rate 20 K/min). The melting point is understood as the peak maximum.
Light microscopy was performed on a Leitz Orthoplan polarized microscope part #130880, generally a 10×10 magnification was applied.
X-ray powder diffraction (XRPD) was carried out with a Stoe Stadi P diffractometer equipped with a Mythen1K detector operating with Cu-Kα1 radiation. The measurements with this instrument were performed in transmission at a tube voltage of 40 kV and 40 mA tube power. A curved Ge monochromator allows testing with Cu-Kα1 radiation. The following parameters were set: 0.02° 2θ step size, 12 s step time, 1.5-50.5° 2θ scanning range, and 1° 2θ detector step (detector mode in step scan). For a typical sample preparation about 10 mg of sample was placed between two acetate foils and mounted into a Stoe transmission sample holder. The sample was rotated during the measurement. All sample preparation and measurement was done in an ambient air atmosphere.
TG-FTIR measurements were carried out with a Netzsch Thermo-Microblanace TG209 coupled to a Bruker FTIR Spectrometer Vector 22 (sample pans with a pinhole, N2 atmosphere, heating rate 10° C./min to 300 or 350° C.).
The starting material was a freebase form of Formula (II).

The nature of series [2]: Mouse pharmacokinetic study, single oral dose, plasma. It is filed as in vivo, NOD/SCID mice. As to the method:
Mouse pharmacokinetic (PK) studies were conducted using Crystalline Form A of 6-(4-cyclopropyl-6-methoxypyrimidin-5-yl)-1-(4-(1-isopropyl-4-(trifluoromethyl)-1H-imidazol-2-yl)benzyl)-1H-pyrazolo[3,4-d]pyrimidine, as disclosed herein, Crystalline Form 2 of a gentisic acid co-crystal of 6-(4-cyclopropyl-6-methoxypyrimidin-5-yl)-1-(4-(1-isopropyl-4-(trifluoromethyl)-1H-imidazol-2-yl)benzyl)-1H-pyrazolo[3,4-d]pyrimidine, as disclosed herein, and Crystalline Form 8 of a benzoic acid co-crystal of 6-(4-cyclopropyl-6-methoxypyrimidin-5-yl)-1-(4-(1-isopropyl-4-(trifluoromethyl)-1H-imidazol-2-yl)benzyl)-1H-pyrazolo[3,4-d]pyrimidine, as disclosed herein.
The PK studies consisted of single dose oral exposure studies, which were conducted in female NOD/SCID mice (approximately 6 to 8 weeks, and 20-30 g at the time of study) using a compound dose of 300 mg/kg and a dosing volume of 10 mL/kg. The mice were fasted overnight prior to dosing. Animals had free access to food and water post-dosing.
Blood was sampled serially from the dorsal metatarsal vein at pre-dose, 0.25, 0.5, 1, 2, 4, 8, 24, 48 (crystalline Form 2 only), and 72 hours (crystalline Form 2 only) post PO dosing. Approximately 0.03 mL blood was collected at each time point and centrifuged at 4000 G for 5 minutes at 4° C. to provide plasma. The plasma samples were then stored in a freezer at −75±15° C. prior to LC-MS/MS analysis.
Concentrations of each compound in the plasma samples were then analyzed using an LC-MS/MS method. WinNonlin (Phoenix™, version 6.1) or other similar software was used for PK calculations. The following PK parameters were calculated, whenever possible from the plasma concentration versus time data: Cmax, Tmax, T1/2, AUCinf, and AUClast. The PK data were described using descriptive statistics such as mean with standard deviation.
Mouse pharmacokinetic (PK) studies were conducted using Crystalline Form 8 of 6-(4-cyclopropyl-6-methoxypyrimidin-5-yl)-1-(4-(1-isopropyl-4-(trifluoromethyl)-1H-imidazol-2-yl)benzyl)-1H-pyrazolo[3,4-d]pyrimidine, as disclosed herein.
Blood was sampled serially from the dorsal metatarsal vein at pre-dose, 0.25, 0.5, 1, 2, 4, 8, and 24 hours post PO dosing. Approximately 0.03 mL blood was collected at each time point and centrifuged at 4000 G for 5 minutes at 4° C. to provide plasma. The plasma samples were then stored in a freezer at −75±15° C. prior to LC-MS/MS analysis.
Concentrations of compound in the plasma samples were then analyzed using an LC-MS/MS method. WinNonlin (Phoenix™, version 6.1) or other similar software was used for PK calculations. The following PK parameters were calculated, whenever possible from the plasma concentration versus time data: Cmax, Tmax, T1/2, AUCinf, and AUClast. The PK data were described using descriptive statistics such as mean with standard deviation.

Series [3] in a line: Distribution in mouse brain and plasma after repeated oral dosing. Format: in vivo. To be noted: female NOD SCID mice; for concentration at 4 h / Kp at 4 h: 4 h (Day 28); for concentration at 24 h / Kp at 24 h: 24 h (Day 28); for Kp at 4 h / Kp at 24 h: brain/plasma, read-out: B/P Ratio. How it is done:
Female NOD SCID mice of an age between 6-8 weeks and a body weight range of 18-22 g were purchased from Beijing Anikeeper Biotech Co, Ltd. Animals were habituated to the environment for at least 7 days prior to study initiation. Mice were dosed with Crystalline Form 2 at either 100 mg/kg or 300 mg/kg dose levels via oral gavage for 28 days. After 24 hours following 27 doses of compound, three mice were euthanized via CO2. After four hours following 28 doses of compound, three mice were euthanized via CO2. At each time point the whole brain was collected. In addition, approximately 0.03 mL of blood was collected at each time point and centrifuged at 4000 G for 5 minutes at 4° C. to provide plasma. Samples were then stored in a freezer at −75±15° C. prior to LC-MS/MS analysis. Concentrations of compound in brain homogenates (ng/g) and plasma (ng/ml) were then analyzed using an LC-MS/MS method. The PK data were described using descriptive statistics such as mean with standard deviation.

Series [4] in a line: Distribution in rat brain and plasma after single oral dose. It is filed as in vivo, Sprague Dawley rats. To be noted: single oral dose 100 mg/kg; for Kp / Cmax / Tmax / half-life / AUC(0-inf): Sprague Dawley, rat; for Kp: brain and plasma, read-out: B/P Conc. Ratio at tmax. As to the method: Male and female Sprague Dawley rats were purchased from Beijing Anikeeper Biotech Co, Ltd. Animals were habituated to the environment prior to study initiation. Rats were dosed with single dose of 100 mg/kg crystalline Form 2 via oral gavage. The rats were fasted overnight prior to dosing. Animals had access to food from 2 hours post dose and free access to water throughout the study. Approximately 0.2 mL of blood was sampled via jugular vein at each time point and centrifuged at 4000 G for 5 minutes at 4° C. to provide plasma. Samples were then stored in a freezer at −75±15° C. prior to LC-MS/MS analysis. Whole brain was collected after hemoperfusion and snap frozen on dry ice prior to storage at −75±15° C. Prior to LC-MS/MS analysis whole brains were weighed and homogenized with water by tissue weight (g) to water volume (ml) ratio 1:3 before analysis. Actual concentration is the measured value multiplied by the dilution factor. The PK data were described using descriptive statistics such as mean with standard deviation.

[5] abbreviates: Mouse 8, single PO dose 300 mg/kg, plasma, 300 mg/kg.
Where [6] appears, read: Mouse 9, single PO dose 300 mg/kg, plasma, 300 mg/kg.
The mark [7] stands for this setting: brain, 100 mg/kg QD oral gavage, read-out: Brain Conc.
[8] abbreviates: brain, 300 mg/kg QD oral gavage, read-out: Brain Conc.
The mark [9] stands for this setting: plasma, 100 mg/kg QD oral gavage, read-out: Plasma Conc.
[10] abbreviates: plasma, 300 mg/kg QD oral gavage, read-out: Plasma Conc.

Like-named read-outs stand apart in the source and are kept apart here.

Turning to `COc1ncnc(C2CC2)c1-c1ncc2cnn(Cc3ccc(-c4nc(C(F)(F)F)cn4C(C)C)cc3)c2n1` [Compound of Formula (II), 6-(4-cyclopropyl-6-methoxypyrimidin-5-yl)-1-(4-(1-isopropyl-4-(trifluoromethyl)-1H-imidazol-2-yl)benzyl)-1H-pyrazolo[3,4-d]pyrimidine], the “Result (co-crystal screening)” value in series [1] (Experiment 1: material as received) is given as “Free base”; in series [1] (Experiment 6: benzoic acid (1:1.1 eq), EtOAc 0.5 mL/heptane 3 mL, agitated 1 day), “Free base”; in series [1] (Experiment 16: gallic acid in acetone, evaporation, glassy residue treated with water/isopropanol), “Free base”; in series [1] (Experiment 17: 300 mg, 430 mg gallic acid, EtOH, evaporated three days) it was “Gallic acid”.
In the case of `COc1ncnc(C2CC2)c1-c1ncc2cnn(Cc3ccc(-c4nc(C(F)(F)F)cn4C(C)C)cc3)c2n1` [Crystalline Form 2, 6-(4-cyclopropyl-6-methoxypyrimidin-5-yl)-1-(4-(1-isopropyl-4-(trifluoromethyl)-1H-imidazol-2-yl)benzyl)-1H-pyrazolo[3,4-d]pyrimidine], the Cmax came out at 28900 ng/mL in series [2] (Mean, female NOD/SCID mice, single PO dose 300 mg/kg, plasma, 300 mg/kg); 28900 ng/mL in series [2] (setting [5]); 29000 ng/mL in series [2] (setting [6]); 5610 ng/g in series [4] (Female SD rats, brain); 9760 ng/mL in series [4] (Female SD rats, plasma); 3900 ng/g in series [4] (Male SD rats, brain). For the same compound, the peak level in series [4] (Male SD rats, plasma) (Cmax) was 5300 ng/mL. Besides, the Tmax turned out to be 8.00 h in series [2] (Mouse 7, single PO dose 300 mg/kg, plasma); 12.0 h in series [2] (setting [6]); 8 h in series [4] (Female SD rats, brain); 8 h in series [4] (Female SD rats, plasma); 8 h in series [4] (Male SD rats, brain); 8 h in series [4] (Male SD rats, plasma). In series [2] (setting [5]), this compound came in with an AUClast of 835.713 µg·h/mL. Further, the “mouse oral exposure levels compared with crystalline Form A (freebase)” value in series [2] (at about 300 mg/kg) is recorded as “higher exposure levels”. Moreover, the half-life in series [2] (female, NOD/SCID, mouse, plasma, po, 300 mg/kg, Mouse 7, single PO dose 300 mg/kg) is 4.03 h; in series [4] (Female SD rats, brain), 12.8 h; in series [4] (Female SD rats, plasma) it was 16.9 h; in series [4] (Male SD rats, brain), 7.43 h; in series [4] (Male SD rats, plasma), 9.13 h. The concentration at 4 h in series [3] (setting [7]) amounted to 1520 ± 559 ng/g; in series [3] (setting [8]), 6500 ± 1050 ng/g; in series [3] (setting [9]), 5040 ± 694 ng/mL; in series [3] (setting [10]), 15300 ± 2320 ng/mL. Further, the concentration at 24 h in series [3] (setting [7]) worked out at 19.5 ng/g; in series [3] (setting [8]), 66.1 ± 81.7 ng/g; in series [3] (setting [9]) it was 178 ± 165 ng/mL; in series [3] (setting [10]) it was 667 ± 852 ng/mL. Also, the Kp at 4 h worked out at 0.306 ± 0.125 in series [3] (100 mg/kg QD oral gavage) and 0.424 ± 0.018 in series [3] (300 mg/kg QD oral gavage). Also, the Kp at 24 h in series [3] (100 mg/kg QD oral gavage) turned out to be 0.091 ± 0.014; in series [3] (300 mg/kg QD oral gavage) it was 0.102 ± 0.007. Also, the “AUC0−∞” value in series [4] (Female SD rats, brain) was 120933 ng·h/g; in series [4] (Male SD rats, brain), 60596 ng·h/g. Besides, the Kp was 0.58 in series [4] (Female SD rats) and 0.731 in series [4] (Male SD rats). Also, the area under the curve AUC(0-inf) came out at 266 µg·h/mL in series [4] (Female SD rats, plasma) and 102 µg·h/mL in series [4] (Male SD rats, plasma).
